What was measured:
[1] = LNP size and polydispersity index (PDI) by dynamic light scattering (Zetasizer); type: physicochemical; details: for PDI / Size: Formulation No. 001, RNA No. 331; for Size (nm): Formulation No. 001 (Ionizable lipid:DSPC:cholesterol:DMG-PEG2000 = 50:10:38.5:1.5, N/P 6), RNA No. 331
Procedure: (§1) The LNP size and polydispersity index (PDI), determined by dynamic light scattering (DLS), and zeta potential were measured by a Zetasizer machine (Malvern). RNA concentration and encapsulation efficacy (EE %) were analyzed by the Quant-IT Ribogreen kit by calculating the percentage encapsulation at 100%—(RNA-LNPs/RNA-LNPs with Triton X-100).

[2] = RNA encapsulation efficacy (EE %) by Quant-IT Ribogreen kit; type: physicochemical; details: LNP, Formulation No. 001, RNA No. 331
Procedure: as §1

[3] = test system: Balb/c mice; test: In vivo expression by IV, 0.05 mg/kg luciferase RNA-LNPs, IVIS luminescence; details: IV 0.05 mg/kg, 24 h post injection, female Balb/c mice N=3, Formulation 001, RNA 331
Procedure: (§2) 7-8 week old, female Balb/c mice (N=3) were injected with 0.05 mg*kg−1 of RNA-LNPs encoding for firefly-luciferase by intravenous injection. At 24- and 72-hours post injection, animals were intraperitoneally injected with 15 mg/mi of Luciferin substrate and whole-body luminescence was determined by a bioluminescent in vivo imaging system (IVIS).
as §2, with “24-hours” for “24- and 72-hours”, “mg/ml” for “mg/mi”, “whole-body/liver/spleen” for “whole-body”

[4] = test system: MCP-1; test: In vivo tolerability by IV: serum MCP-1 by Luminex; set-up: species or system C57BL/6J mice; details: IV 1.0 mg/kg, male C57BL/6J mice N=3, Formulation 001, RNA 331
Procedure: (§3) 6-8 week old, male C57BL/6J mice (N=3) were injected with 1.0 mg*kg/1 of RNA-LNPs encoding for firefly-luciferase by intravenous injection. At 2- and 24-hours post injection, about 40 μL blood was harvested and immediately added to the procoagulant containing tube. Stand for 30 min at room temperature and then centrifuged at 2500 g×10 min to obtain serum. About 15 μL serum samples were aliquoted for cytokine (MCP-1 and IL-6) detection by Luminex (ProcartaPlex Mouse 2-plex, Thermo). PBS group as negative control.
as §3, with “mg*kg−1” for “mg*kg/1”

[5] = test system: IL-6; test: In vivo tolerability by IV: serum IL-6 by Luminex; set-up: species or system C57BL/6J mice; details: IV 1.0 mg/kg, male C57BL/6J mice N=3, Formulation 001, RNA 331
Procedure: as §3
as §3, with “mg*kg−1” for “mg*kg/1”

[6] = test system: C57BL/6J mice; test: In vivo expression by IV, 1.0 mg/kg luciferase RNA-LNPs, whole-body and organ IVIS luminescence; details: IV 1.0 mg/kg, 24 h post injection, male C57BL/6J mice N=3, Formulation 001, RNA 331
Procedure: (§4) 6-8 week old, male C57BL/6J mice (N=3) were injected with 1.0 mg*kg−1 of RNA-LNPs encoding for firefly-luciferase by intravenous injection. At 24-hours post injection, animals were intraperitoneally injected with 15 mg/ml of Luciferin substrate and whole-body/liver/spleen/kidney/small intestine/large intestine luminescence were determined by a bioluminescent in vivo imaging system (IVIS).
as §4, with “mg/nil” for “mg/ml”

Row | Structure (SMILES) | PDI [1] | Size [1] | EE (%) [2] | Liver (p/s) (Mean) [3] | Spleen (p/s) (Mean) [3] | Whole body (p/s) (Mean) [3] | MCP-1 at 2 h [4] | MCP-1 at 24 h [4] | IL-6 at 2 h [5] | IL-6 at 24 h [5] | Kidney (p/s) [6] | Large intestine (p/s) [6] | Liver (p/s) [6] | Small intestine (p/s) [6] | Spleen (p/s) [6] | Whole body (p/s) [6] | Size (nm) [1]
1 | CCCCCCCCCCC(CCCCCCCC)COC(=O)CCCCCOC(=O)NC(COC(=O)NCCN(C)C)C(=O)OCCCCCC(=O)OCC(CCCCCCCC)CCCCCCCCCC (stereo not shown) [Lipid 1017] | 0.07 | 69.70 nm | 97.70% | 3.91E+07 p/s | 1.30E+07 p/s | 2.45E+08 p/s | 2430 pg/mL | 94.6 pg/mL | 12.8 pg/mL | 0.792 pg/mL | 9.00E+06 p/s | 2.09E+07 p/s | 9.32E+08 p/s | 1.93E+08 p/s | 4.32E+08 p/s | 1.13E+09 p/s | –
2 | CCCCCCCCCCC(CCCCCCCC)COC(=O)CCCCCOC(=O)NC(COC(=O)NCCN1CCCC1)C(=O)OCCCCCC(=O)OCC(CCCCCCCC)CCCCCCCCCC (stereo not shown) [Lipid 1019] | 0.10 | 68.78 nm | 97.11% | 3.60E+07 p/s | 2.21E+07 p/s | 2.46E+08 p/s | 3720 pg/mL | 401 pg/mL | 404 pg/mL | 2.02 pg/mL | 1.46E+07 p/s | 2.12E+08 p/s | 1.20E+09 p/s | 5.41E+08 p/s | 4.98E+08 p/s | 2.49E+09 p/s | –
3 | CCCCCCCC/C=C\CCCCCCCCOC(=O)NC(COC(=O)NCCN1CCCCCC1)C(=O)OCCCCCC(=O)OCC(CCCCCCCC)CCCCCCCCCC (stereo not shown) [Lipid 1041] | 0.08 | – | 90.29% | – | – | – | 1180 pg/mL | 68.1 pg/mL | 51.2 pg/mL | 4.53 pg/mL | 6.14E+06 p/s | 1.74E+07 p/s | 1.08E+09 p/s | 1.96E+08 p/s | 1.93E+08 p/s | 8.03E+08 p/s | 59.33 nm
4 | CCCCCCCCCCC(CCCCCCCC)COC(=O)CCCCCOC(=O)NC(COC(=O)NCCN1CCCCCC1)C(=O)OCCCCCCCC(=O)OC(CCCCCCCC)CCCCCCCC (stereo not shown) [Lipid 1072] | 0.04 | – | 96.51% | – | – | – | 554 pg/mL | 35.1 pg/mL | 2.07 pg/mL | 0.947 pg/mL | 8.41E+06 p/s | 1.22E+07 p/s | 1.40E+10 p/s | 2.07E+08 p/s | 1.95E+08 p/s | 6.81E+09 p/s | 52.67 nm
